According to US20230406865A1, “CRYSTAL FORM OF FREE BASE OF INHIBITOR CONTAINING BICYCLIC RING DERIVATIVE AND PREPARATION METHOD AND APPLICATION OF CRYSTAL FORM” (SHANGHAI HANSOH BIOMEDICAL CO., LTD., priority 2020, published 2023):
pIC50: −log10 of the molar value.

Target: hERG (Homo sapiens, UniProt Q12809)
Assay: cell-based
Protocol: Terfenadine (Sigma-Aldrich, MKBX6318V); • HEK293-hERG cell line (human embryonic kidney cells stably expressing hERG channels), provided by Academy of Military Medical Sciences.
Human embryonic kidney cells (HEK293) stably expressing hERG channels were cultured in DMEM medium (DMEM, HyClone) in a 37° C. cell incubator containing 5% CO2. About 10% fetal bovine serum (FBS, gibco) was added to the cell culture medium.
Human embryonic kidney cells stably expressing hERG channels (HEK293-hERG) were used for the experiment. HEK293 cells were clamped with the Multi Clamp 700B manual patch clamp system to form a whole-cell voltage clamp pattern, and hERG current was induced with the corresponding voltage. […] The peak values of tail current recorded under the solvent control were taken as 100%, and the data of positive control and test samples were standardized. Curve fitting and IC50 calculation were done in the software GraphPad Prism 5.00 using the standard Hill equation.

hERG, sequence (Q12809 whole entry): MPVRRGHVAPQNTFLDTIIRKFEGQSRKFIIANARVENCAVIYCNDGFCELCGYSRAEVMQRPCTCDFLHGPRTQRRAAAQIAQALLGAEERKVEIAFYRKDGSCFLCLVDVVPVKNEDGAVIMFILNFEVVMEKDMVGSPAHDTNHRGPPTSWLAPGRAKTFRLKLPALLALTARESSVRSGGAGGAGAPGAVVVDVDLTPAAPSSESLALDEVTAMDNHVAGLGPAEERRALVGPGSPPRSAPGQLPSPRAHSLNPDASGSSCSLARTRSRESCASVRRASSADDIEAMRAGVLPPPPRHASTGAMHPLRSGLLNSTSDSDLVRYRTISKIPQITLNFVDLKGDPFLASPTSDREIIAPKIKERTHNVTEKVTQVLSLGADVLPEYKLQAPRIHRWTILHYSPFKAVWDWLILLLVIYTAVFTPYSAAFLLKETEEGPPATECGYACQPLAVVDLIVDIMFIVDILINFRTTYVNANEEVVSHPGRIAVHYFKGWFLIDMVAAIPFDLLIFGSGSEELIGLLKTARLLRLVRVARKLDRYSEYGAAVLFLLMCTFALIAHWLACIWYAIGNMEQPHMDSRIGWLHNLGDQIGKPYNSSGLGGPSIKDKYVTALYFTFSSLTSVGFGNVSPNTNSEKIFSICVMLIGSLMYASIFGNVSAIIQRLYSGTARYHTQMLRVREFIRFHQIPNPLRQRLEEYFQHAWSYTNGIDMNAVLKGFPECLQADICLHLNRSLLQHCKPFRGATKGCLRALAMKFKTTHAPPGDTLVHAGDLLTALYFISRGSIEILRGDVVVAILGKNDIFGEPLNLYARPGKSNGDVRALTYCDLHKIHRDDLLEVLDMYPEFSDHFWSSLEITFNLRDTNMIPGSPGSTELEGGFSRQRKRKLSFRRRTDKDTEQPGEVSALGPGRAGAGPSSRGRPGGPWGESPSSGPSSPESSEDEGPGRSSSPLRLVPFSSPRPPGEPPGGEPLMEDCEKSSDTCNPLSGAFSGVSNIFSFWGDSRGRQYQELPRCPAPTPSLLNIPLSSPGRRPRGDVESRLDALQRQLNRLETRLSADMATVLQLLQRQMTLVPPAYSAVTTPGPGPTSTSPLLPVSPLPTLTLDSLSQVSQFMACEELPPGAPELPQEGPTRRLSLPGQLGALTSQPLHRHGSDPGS

SMILES: C#C[C@@](C)(O)COc1cc(-c2ccc(N3CC4CC(C3)N4Cc3ccc(OC)nc3)nc2)c2c(C#N)cnn2c1 [Embodiment 63, 6-(((R)-2-hydroxy-2-methylbut-3-yn-1-yl)oxy)-4-(6-(6-((6-methoxypyridin-3-yl)methyl)-3,6-diazabicyclo[3.1.1]heptan-3-yl)pyridin-3-yl)pyrazolo[1,5-a]pyridine-3-carbonitrile]
- pIC50: 4.77
- inhibition at 0.1 μmol/L (human): 3.24%
- inhibition at 1 μmol/L (human): 8.39%
- inhibition at 3 μmol/L (human): 12.7%
- inhibition at 10 μmol/L (human): 35.4%
- inhibition at 30 μmol/L (human): 58.8%
